Where a name gives a salt, the structure may show the parent alone.
What was measured:
NaV1.1 = NaV1.1 (Homo sapiens (Human), UniProt P35498); assay: Sodium Influx Assay (Flux), NaV1.1; type: cell-based; conditions: Trex HEK293 cells, ANG2 dye; arithmetic mean
NaV1.6 = NaV1.6 (Homo sapiens (Human), UniProt Q9UQD0); assay: Sodium Influx Assay (Flux), NaV1.6; conditions: read-out: Flux NaV1.6 IC50; Trex HEK293 cells, ANG2 dye; arithmetic mean
NaV1.5 = NaV1.5 (Homo sapiens (Human), UniProt Q14524); assay: Sodium Influx Assay (Flux), NaV1.5; conditions: read-out: Flux NaV1.5 IC50; Trex HEK293 cells, ANG2 dye; arithmetic mean
NaV1.5, sequence (Q14524 other isoform, or with tags, fused parts or gaps): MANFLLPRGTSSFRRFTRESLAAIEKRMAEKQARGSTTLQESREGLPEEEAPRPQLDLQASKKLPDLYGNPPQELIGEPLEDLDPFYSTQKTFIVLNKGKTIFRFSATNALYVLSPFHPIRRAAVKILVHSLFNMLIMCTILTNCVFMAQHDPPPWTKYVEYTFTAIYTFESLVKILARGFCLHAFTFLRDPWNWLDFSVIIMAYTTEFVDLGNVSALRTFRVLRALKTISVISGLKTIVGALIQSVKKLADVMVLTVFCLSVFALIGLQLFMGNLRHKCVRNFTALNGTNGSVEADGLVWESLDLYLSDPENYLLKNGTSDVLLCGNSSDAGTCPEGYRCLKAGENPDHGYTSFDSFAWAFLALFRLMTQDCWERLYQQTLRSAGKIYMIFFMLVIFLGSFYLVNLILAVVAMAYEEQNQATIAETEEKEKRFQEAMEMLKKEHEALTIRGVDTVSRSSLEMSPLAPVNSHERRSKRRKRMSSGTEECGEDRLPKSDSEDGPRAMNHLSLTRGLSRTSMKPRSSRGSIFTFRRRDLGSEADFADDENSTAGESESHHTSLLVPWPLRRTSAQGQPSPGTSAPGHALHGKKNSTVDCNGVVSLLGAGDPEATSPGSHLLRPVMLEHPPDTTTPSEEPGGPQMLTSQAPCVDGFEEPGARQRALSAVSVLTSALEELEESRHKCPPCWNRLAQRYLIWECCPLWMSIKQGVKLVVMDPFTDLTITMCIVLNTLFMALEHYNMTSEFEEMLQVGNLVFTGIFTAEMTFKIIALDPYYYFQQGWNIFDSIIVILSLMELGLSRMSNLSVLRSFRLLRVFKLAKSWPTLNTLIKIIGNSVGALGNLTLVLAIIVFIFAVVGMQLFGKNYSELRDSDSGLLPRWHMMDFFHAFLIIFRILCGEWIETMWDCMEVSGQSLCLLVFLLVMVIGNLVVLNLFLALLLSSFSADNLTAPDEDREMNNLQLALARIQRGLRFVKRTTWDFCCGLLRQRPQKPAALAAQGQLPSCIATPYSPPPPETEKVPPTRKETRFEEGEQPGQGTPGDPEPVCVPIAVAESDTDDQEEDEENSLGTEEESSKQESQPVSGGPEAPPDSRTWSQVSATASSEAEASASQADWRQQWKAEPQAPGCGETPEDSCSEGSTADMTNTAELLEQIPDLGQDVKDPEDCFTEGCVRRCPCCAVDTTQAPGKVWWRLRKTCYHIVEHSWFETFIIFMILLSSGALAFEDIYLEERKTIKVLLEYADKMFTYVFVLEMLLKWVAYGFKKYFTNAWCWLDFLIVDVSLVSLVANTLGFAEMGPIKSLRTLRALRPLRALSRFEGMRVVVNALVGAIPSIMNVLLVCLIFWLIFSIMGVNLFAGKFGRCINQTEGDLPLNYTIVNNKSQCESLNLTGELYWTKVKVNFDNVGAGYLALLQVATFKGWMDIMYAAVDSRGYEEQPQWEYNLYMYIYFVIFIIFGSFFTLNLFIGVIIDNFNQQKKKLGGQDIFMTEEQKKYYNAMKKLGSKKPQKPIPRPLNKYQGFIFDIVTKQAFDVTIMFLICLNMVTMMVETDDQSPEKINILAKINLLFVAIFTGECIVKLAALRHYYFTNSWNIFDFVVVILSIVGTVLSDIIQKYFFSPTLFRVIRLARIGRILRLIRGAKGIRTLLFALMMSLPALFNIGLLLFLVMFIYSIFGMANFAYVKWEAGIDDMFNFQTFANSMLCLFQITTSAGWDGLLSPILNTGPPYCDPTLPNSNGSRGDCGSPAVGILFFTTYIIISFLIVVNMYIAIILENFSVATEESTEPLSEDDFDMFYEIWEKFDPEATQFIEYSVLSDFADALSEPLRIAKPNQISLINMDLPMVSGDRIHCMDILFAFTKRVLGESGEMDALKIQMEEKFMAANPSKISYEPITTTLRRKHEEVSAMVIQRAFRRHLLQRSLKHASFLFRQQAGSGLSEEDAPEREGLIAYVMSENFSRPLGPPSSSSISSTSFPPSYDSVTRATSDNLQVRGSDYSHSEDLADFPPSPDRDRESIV

IC50 (NaV1.1) [µM] | IC50 (NaV1.6) [µM] | Structure (SMILES) | IC50 (NaV1.5) [µM]
20.9 | 0.146 | Cc1ccc(CN2CC[C@H](N(C)c3cc(F)c(S(=O)(=O)Nc4cscn4)cc3C)C2)o1 [Example 132, (S)-2-fluoro-5-methyl-4-(methyl(1-((5-methylfuran-2-yl)methyl)pyrrolidin-3-yl)amino)-N-(thiazol-4-yl)benzenesulfonamide] | > 30
3.25 | 4.15 | CN(c1cc(F)c(S(=O)(=O)Nc2cscn2)cc1Cl)[C@H]1CCN(Cc2ccc(Cl)cc2)C1 [Example 188, (S)-5-chloro-4-((1-(4-chlorobenzyl)-pyrrolidin-3-yl)(methyl)amino)-2-fluoro-N-(thiazol-4-yl)benzene-sulfonamide] | 8.24
4.62 | 0.821 | CN(c1cc(F)c(S(=O)(=O)Nc2cscn2)cc1Cl)[C@H]1CCN(Cc2c(F)cccc2Cl)C1 [Example 169, (S)-5-chloro-4-((1-(2-chloro-6-fluorobenzyl)pyrrolidin-3-yl)(methyl)amino)-2-fluoro-N-(thiazol-4-yl)benzene-sulfonamide 2,2,2-trifluoroacetate] | 5.27
5.1 | 1.49 | CN(c1cc(F)c(S(=O)(=O)Nc2cscn2)cc1Cl)[C@H]1CCN(Cc2cc(Cl)ccc2F)C1 [Example 195, (S)-5-chloro-4-((1-(5-chloro-2-fluorobenzyl)pyrrolidin-3-yl)(methyl)amino)-2-fluoro-N-(thiazol-4-yl)benzenesulfonamide] | 3.78
> 30 | 10.9 | CN(c1cc(F)c(S(=O)(=O)Nc2cscn2)cc1F)[C@H]1CCN(Cc2ccccc2)C1 [Example 293, (S)-4-((1-benzylpyrrolidin-3-yl)(methyl)amino)-2,5-difluoro-N-(thiazol-4-yl)benzenesulfonamide 2,2,2-trifluoroacetate] | > 30
4.98 | 2.92 | Cc1cc(CN2CC[C@H](N(C)c3cc(F)c(S(=O)(=O)Nc4cscn4)cc3Cl)C2)ccc1F [Example 211, (S)-5-chloro-2-fluoro-4-((1-(4-fluoro-3-methylbenzyl)pyrrolidin-3-yl)(methyl)amino)-N-(thiazol-4-yl)benzenesulfonamide] | 7.85
9.41 | 0.877 | CN(c1cc(F)c(S(=O)(=O)Nc2cscn2)cc1Cl)[C@H]1CCN(Cc2c[nH]c3ccccc23)C1 [Example 182, (S)-4-((1-((1H-indol-3-yl)methyl)pyrrolidin-3-yl)(methyl)amino)-5-chloro-2-fluoro-N-(thiazol-4-yl)benzene-sulfonamide 2,2,2-trifluoroacetate] | 9.86
5.07 | 0.217 | Cc1cc(S(=O)(=O)Nc2cscn2)c(F)cc1N(C)[C@H]1CCN(Cc2csc(C(F)(F)F)n2)C1 [Example 137, (S)-2-fluoro-5-methyl-4-(methyl(1-((2-(trifluoromethyl)thiazol-4-yl)methyl)pyrrolidin-3-yl)amino)-N-(thiazol-4-yl)benzenesulfonamide] | 16.5
> 30 | 0.878 | Cc1ccnc(CN2CCC(Oc3ccc(S(=O)(=O)Nc4nccs4)cc3Cl)CC2)c1 [Example 14, 3-chloro-4-((1-((4-methylpyridin-2-yl)methyl)piperidin-4-yl)oxy)-N-(thiazol-2-yl)benzenesulfonamide] | 10.7
12.6 | 3.62 | Cc1ccc(CN2CCC(Oc3ccc(S(=O)(=O)Nc4nccs4)cc3Cl)CC2)cc1C [Example 93, 3-chloro-4-(1-(3,4-dimethylbenzyl)piperidin-4-yloxy)-N-(thiazol-2-yl)benzenesulfonamide] | 12.5
11.4 | 3.44 | Cc1cc(C)cc(CN2CCC(Oc3ccc(S(=O)(=O)Nc4nccs4)cc3Cl)CC2)c1 [Example 94, 3-chloro-4-(1-(3,5-dimethylbenzyl)piperidin-4-yloxy)-N-(thiazol-2-yl)benzenesulfonamide] | 7.62
> 30 | 4.52 | Cc1cc(S(=O)(=O)Nc2cscn2)c(F)cc1N(C)[C@H]1CCN(Cc2ccc(O)cc2)C1 [Example 126, (S)-2-fluoro-4-((1-(4-hydroxybenzyl)-pyrrolidin-3-yl)(methyl)amino)-5-methyl-N-(thiazol-4-yl)benzenesulfonamide] | > 30
7.31 | 1.38 | CN(c1cc(F)c(S(=O)(=O)Nc2cscn2)cc1Cl)[C@H]1CCN(Cc2cc(F)ccc2F)C1 [Example 207, (S)-5-chloro-4-((1-(2,5-difluorobenzyl)pyrrolidin-3-yl)(methyl)amino)-2-fluoro-N-(thiazol-4-yl)benzenesulfonamide] | 7.48
4.17 | 2.02 | CN(c1cc(F)c(S(=O)(=O)Nc2cscn2)cc1Cl)[C@H]1CCN(Cc2cccc(OC(F)F)c2)C1 [Example 168, (S)-5-chloro-4-((1-(3-(difluoromethoxy)benzyl)-pyrrolidin-3-yl)(methyl)amino)-2-fluoro-N-(thiazol-4-yl)benzene-sulfonamide formate] | 5.89
2.67 | 1.77 | Cc1ccc(F)c(CN2CC[C@](C)(Nc3ccc(S(=O)(=O)Nc4cscn4)cc3Cl)C2)c1 [Example 266, (S)-3-chloro-4-((1-(2-fluoro-5-methylbenzyl)-3-methylpyrrolidin-3-yl)amino)-N-(thiazol-4-yl)benzenesulfonamide formate] | 2.06
4.41 | 1.09 | CN(c1cc(F)c(S(=O)(=O)Nc2cscn2)cc1Cl)[C@H]1CCN(Cc2cccc(Cl)c2)C1 [Example 208, (S)-5-chloro-4-((1-(3-chlorobenzyl)pyrrolidin-3-yl)(methyl)amino)-2-fluoro-N-(thiazol-4-yl)benzenesulfonamide] | 5.69
6.73 | 4.56 | Cc1cc(S(=O)(=O)Nc2ccc(F)cn2)c(F)cc1N(C)[C@H]1CCN(Cc2ccccc2)C1 [Example 306, (S)-4-((1-benzylpyrrolidin-3-yl)(methyl)amino)-2-fluoro-N-(5-fluoropyridin-2-yl)-5-methylbenzenesulfonamide] | 11.9
6.02 | 0.613 | Cc1cc(S(=O)(=O)Nc2cscn2)c(F)cc1N(C)[C@H]1CCN(C2Cc3ccccc3C2)C1 [Example 149, (S)-4-((1-(2,3-dihydro-1H-inden-2-yl)pyrrolidin-3-yl)(methyl)amino)-2-fluoro-5-methyl-N-(thiazol-4-yl)benzenesulfonamide] | 9.18
25.1 | 4.32 | CN(c1cc(F)c(S(=O)(=O)Nc2cscn2)cc1Cl)[C@H]1CCN(Cc2ccc[nH]2)C1 [Example 202, (S)-4-((1-((1H-pyrrol-2-yl)methyl)pyrrolidin-3-yl)(methyl)amino)-5-chloro-2-fluoro-N-(thiazol-4-yl)benzenesulfonamide] | > 30
> 30 | 2.86 | Cc1nc(CN2CC[C@H](N(C)c3cc(F)c(S(=O)(=O)Nc4cscn4)cc3C)C2)co1 [Example 131, (S)-2-fluoro-5-methyl-4-(methyl(1-((2-methyloxazol-4-yl)methyl)pyrrolidin-3-yl)amino)-N-(thiazol-4-yl)benzenesulfonamide] | > 30
7.02 | 1.27 | CN(c1cc(F)c(S(=O)(=O)Nc2cscn2)cc1C1CC1)[C@H]1CCN(Cc2ccccc2)C1 [Example 289, (S)-4-((1-benzylpyrrolidin-3-yl)(methyl)amino)-5-cyclopropyl-2-fluoro-N-(thiazol-4-yl)benzenesulfonamide 2,2,2-trifluoroacetate] | 19.4
13.1 | 0.967 | CN(c1cc(F)c(S(=O)(=O)Nc2cscn2)cc1Br)[C@H]1CCN(Cc2ccccc2)C1 [Example 230, (S)-4-((1-benzylpyrrolidin-3-yl)(methyl)amino)-5-bromo-2-fluoro-N-(thiazol-4-yl)benzenesulfonamide 2,2,2-trifluoroacetate] | 23
> 30 | 2.12 | Cc1nc(CN2CC[C@H](N(C)c3cc(F)c(S(=O)(=O)Nc4cscn4)cc3C)C2)c(C)o1 [Example 245, (S)-4-((1-((2,5-dimethyloxazol-4-yl)methyl)pyrrolidin-3-yl)(methyl)amino)-2-fluoro-5-methyl-N-(thiazol-4-yl)benzenesulfonamide 2,2,2-trifluoroacetate] | > 30

Structure (SMILES) | IC50 (NaV1.1) [µM] | IC50 (NaV1.6) [µM] | IC50 (NaV1.5) [µM]
Cc1cc(S(=O)(=O)Nc2cscn2)c(F)cc1N(C)[C@H]1CCN(Cc2ccn(C(F)F)n2)C1 [Example 147, (S)-4-((1-((1-(difluoromethyl)-1H-pyrazol-3-yl)methyl)pyrrolidin-3-yl)(methyl)amino)-2-fluoro-5-methyl-N-(thiazol-4-yl)benzenesulfonamide] | > 30 | 0.482 | > 30
Cc1cc(S(=O)(=O)Nc2cscn2)c(F)cc1N[C@H]1CCN(Cc2ccccc2)C1 [Example 288, (S)-4-((1-benzylpyrrolidin-3-yl)amino)-2-fluoro-5-methyl-N-(thiazol-4-yl)benzenesulfonamide 2,2,2-trifluoroacetate] | 15.9 | 4.32 | 27.4
CC(c1ccccc1)N1CCC(Oc2cc(F)c(S(=O)(=O)Nc3nccs3)cc2Cl)CC1 (stereo not drawn) [Example 54, 5-chloro-2-fluoro-4-((1-(1-phenylethyl)piperidin-4-yl)oxy)-N-(thiazol-2-yl)benzenesulfonamide] | 9.93 | 0.156 | 16.7
O=S(=O)(Nc1nccs1)c1ccc(OC2CCN(C3CCCCC3)CC2)c(Cl)c1 [Example 7, 3-chloro-4-((1-cyclohexylpiperidin-4-yl)oxy)-N-(thiazol-2-yl)benzenesulfonamide 2,2,2-trifluoroacetate] | > 30 | 27.3 | > 30

From US10246453B2, “Benzenesulfonamide compounds and their use as therapeutic agents” (Xenon Pharmaceuticals Inc., priority 2016, dated 2019)
